# Assays:
# EHD1 = target: T1, EHD1 (Homo sapiens, UniProt Q9H4M9); test: nHU-MS peptide bait, prey EHD1; conditions: FigureS2 Volcano; prey EHD1
# T1 sequence (Q9H4M9 1-534): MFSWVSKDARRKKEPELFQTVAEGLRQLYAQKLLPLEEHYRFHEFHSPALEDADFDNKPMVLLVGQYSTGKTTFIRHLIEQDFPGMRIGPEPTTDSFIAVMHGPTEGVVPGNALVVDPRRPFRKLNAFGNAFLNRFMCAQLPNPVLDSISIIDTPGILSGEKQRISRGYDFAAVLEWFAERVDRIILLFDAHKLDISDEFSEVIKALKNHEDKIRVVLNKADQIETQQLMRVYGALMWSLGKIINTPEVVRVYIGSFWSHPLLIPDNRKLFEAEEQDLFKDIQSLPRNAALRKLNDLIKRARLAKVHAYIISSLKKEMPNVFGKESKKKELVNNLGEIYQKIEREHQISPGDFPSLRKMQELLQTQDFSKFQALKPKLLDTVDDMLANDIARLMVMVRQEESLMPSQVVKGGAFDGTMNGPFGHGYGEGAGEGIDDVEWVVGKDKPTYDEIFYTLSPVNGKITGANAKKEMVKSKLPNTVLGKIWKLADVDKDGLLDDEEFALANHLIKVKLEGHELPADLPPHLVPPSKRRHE
# POLE = test: Titration nHU, Western blot, endogenous POLE in Jurkat extract; assay type: binding, human; conditions: titration nHU, Jurkat extract
# Text: (§1) To identify the partners of NPF motifs, we used the native holdup (nHU) assay that was recently developed by our team (Fig. 1B). The holdup approach has been extensively used to determine equilibrium dissociation constants of transient interactions mediated by PDZ and SH3 domains, 14-3-3, and human papilloma virus E6 proteins, and even nucleic acid-protein interactions[7],[30]–[35]. In the nHU experiments, a purified bait molecule, or a control compound, is immobilized on a resin at high concentration (typically 10 μM, or higher) and these resin stocks are subsequently mixed with dilute cell extracts. After a relatively long incubation, i.e., 2 h at 4 °C, the liquid phase is separated by centrifugation. This liquid phase contains the unbound prey molecules at near binding equilibrium that can be quantified using selective and quantitative analytical approaches, such as mass spectrometry. Therefore, proteins that interact with the bait molecule will appear to be depleted in the solvent phase and by measuring its relative concentration compared to the control nHU experiment, the degree of binding (θ) can be determined that can be converted to apparent steady-state dissociation constants, according to:1 θ=1−Ifree/Itot=Cbait/Cbait+Kapp where Itot and Ifree are the measured total and bait-depleted equilibrium mass spectrometry total ion intensities of prey proteins, Cbait is the bait molecule concentration and Kapp is the apparent dissociation constant.
# Jurkat E6.1 cells (ECACC #88042803, RRID: CVCL_0367) were grown in RPMI (Gibco) medium completed with 10% FBS (Gibco BRL) and 40 μg/ml gentamicin (Gibco/Life Technology). To prepare total cell extracts, Jurkat cells were seeded onto T-175 flasks and grew until 3 × 10^6 cells/ml confluency. Cells were collected by 1000 g x 5 min centrifugation, washed with PBS and then lysed in ice-cold lysis buffer (Hepes-KOH pH 7.5 50 mM, NaCl 150 mM, Triton X-100 1%, cOmplete EDTA-free protease inhibitor cocktail 5x, TCEP 5 mM, glycerol 10%).
# Cell suspensions were sonicated 4×20 sec with 1 sec long pulse on ice, then incubated rotating at 4 °C for 30 min. The lysates were centrifuged at 12,000 rpm 4 °C for 20 min and supernatant was kept. Total protein concentration was measured by standard Bradford method (Bio-Rad Protein Assay Dye Reagent #5000006) using a BSA calibration curve (MP Biomedicals #160069, diluted in lysis buffer) on a Bio-Rad SmartSpec 3000 spectrophotometer instrument.
# Titration holdup experiments were carried out as described above using 25 μl saturated resins prepared. Briefly, we mixed control, or bait-saturated resins at various proportions by keeping the total resin amount and resin-analyte ratio constant during the experiment (for 25 μl we used 100 μl cell extract as analyte). In titration experiments with protein baits, bait concentration was determined as described above for the saturated resin stocks. Experiments were carried out at 4 °C for 2 h and recovered supernatants were subjected to western blot or dot blot analysis.
# For Western blot, samples were mixed with 4x Laemmli Sample Buffer in 3:1 ratio. Equal amounts of samples were loaded on 6-10% acrylamide-gels (generally 16 μg). Transfer was done into PVDF membranes using a Trans-Blot Turbo Transfer System and Trans-Blot Turbo RTA Transfer Kit (BioRad, #1704275). For Dot blot, nHU samples were directly loaded on Nitrocellulose membranes using 48 Sample vacuum manifold (Cleaver Scientific) following the manufacturer’s recommendations.
# After 1 h of blocking in 5% milk, membranes were incubated overnight at 4 °C with primary antibodies in 5% milk-TBS-Tween.
# [1] = tested on: endogenous proteins of Jurkat extract; test: Single-point nHU-MS with biotinylated NPF motif peptide baits, proteome-wide; assay type: binding, human; conditions: FigureS2 Volcano; prey FBXO3
# Text: as §1, with “After a relatively long incubation, i.e., 2 h at 4 °C, the liquid phase is separated by centrifugation.” left out, “constant. […]” for “constant.”
substance,measurement,setting,value
TSETSK [SYNJ1],-log10P,EHD1,14.1958
same,log2FC,EHD1,-0.4973
same,weaker POLE binding than the DONSON motif,POLE,~ 6 fold
same,log2FC,[1],-0.5002
